From patent US20160022731A1, “[…] NITRIC OXIDE FOR TREATING RESPIRATORY DISEASES” (Advanced Inhalation Therapies (AIT) Ltd., priority 2013, published 2016)
Where two headings read alike, the source gives them in different places.

Experiments:
S. aureus = S. aureus on agar; 50-160 ppm gNO, vs medical air; cited from earlier work
[1] = test system: chronic, non-healing wound; conditions: topical 200 ppm gNO; within the first three days of treatment; cited from earlier work
[2] = Phase I open label safety study of intermittent inhalation of 160 ppm gNO in healthy adults; format: in vivo, human
Description: 10 healthy adult volunteer subjects (5 males, 5 females), aged 20 to 62 years, were enrolled in the study after screening their medical history, a physical examination, pulmonary function tests and blood values. Exclusion criteria included individuals less than 19 years of age, pregnant females and unwilling to practice birth control during the study, diagnosed with pulmonary disease, epistaxis, hemoptysis, methemoglobinemia, organ transplant recipient or receiving antibiotic therapy.
After obtaining informed consent, treatment was initiated within 5 days of enrollment. Subjects were housed in a hospital ward and received 160 ppm gNO for 30 minutes every four hours (Q4 h), five times a day, for five consecutive days by inhalation. Subjects returned for follow-up evaluations 3, 7 and 21 days after the final gNO administration. Subject safety was determined by monitoring vital signs, methemoglobin levels, lung function, blood chemistry, hematology, prothrombin time, inflammatory cytokine/chemokines levels and endothelial activation. These parameters were compared to baseline and at various time-points during and after gNO administration.
Subjects were administered gNO through a modified disposable mouthpiece to maximize mixing. Inspiration was spontaneously initiated by the subject from a conventional intermittent positive pressure breathing respirator (Mark-7, Carefusion, USA) in fixed flow mode delivering 48 liters per minute (LPM). Flows of gas were verified with a calibrated mass flow meter (TSI, USA). Gaseous nitric oxide (gNO, obtained at INOmax, Ikaria, USA) at a concentration of 800 ppm delivered at a flow of 12 LPM was titrated into a distal delivery port on the mouth piece connected to the respirator during inspiratory phase only (pressure switch). The Mark 7 respirator was supplied by an air/oxygen blender (Bird Sentry, Carefusion, USA) set to deliver 26% oxygen.
The levels of gNO, NO2, O2 and methemoglobin were monitored during the administration of gNO. […] Inspiratory NO, NO2 and O2 levels were continuously monitored by sampling from the mouthpiece sample port located about 6 millimeters from the mouth of the subject with an AeroNOx (Pulmonox, AB, Canada) NO, NO2 and O2 electrochemical analyzer. Delivery safety was determined by the number of occasions that NO2 exceeded 5 ppm, gNO exceeding 10% variation and O2 dropping below 20% during gNO administration. […]
These parameters were measured continuously during every gNO administration course and for 3.5 hours after the first treatment of the day. Daily serum samples were collected and frozen at −80° C. and the serum […] level was measured using the Griess reagent.
Subjects underwent full pulmonary function tests (PFT), including lung diffusing capacity (DLCO) by a trained technician utilizing a calibrated pulmonary function system (Jaeger MasterScreen, VIASYS Healthcare, USA) on screening and days 2, 8, 12 and 26. […] Effect of gNO on lung function and DLCO was determined by changes from baseline, treatment days and follow up days.
General medical examinations were performed by a pulmonary physician on screening and on days 8, 12 and 26 to obtain oxygenation and vital sign measurements. […] Oxygenation was measured with a pulse oximeter (Rad 57, Masimo Corporation, USA) which was used according to manufacturer's guidelines to measure functional oxygen saturation of arterial hemoglobin (SpO2) and heart rate. […]

[3] = rats, cited from earlier work
P. aeruginosa = P. aeruginosa on agar; 50-160 ppm gNO, vs medical air; cited from earlier work
[4] = healthy humans, cited from earlier work
[5] = test system: five planktonic species of methicillin resistant S. aureus (MRSA); conditions: 1,600 ppm hours of gNO; cited from earlier work
[6] = test system: bovine respiratory disease; conditions: cattle; intermittent 30 minute exposures of gNO; cited from earlier work

SMILES: [N]=O [gNO, nitric oxide]
- survival (bactericidal trend) (S. aureus): 5-10%
- presence of biofilm in the wound [1]: no longer visibly present
- accumulative effect on SpMet ([2]; after five daily treatments for five consecutive days): no accumulative or lingering effect on SpMet
- DLCO, FVC, TLC and RV ([2]; during the course of the study): did not change from baseline measurement
- airflow as measured by FEV1 and MMEF ([2]; during the course of the study): did not differ from baseline
- Ang-2 and Ang-2/Ang-1 ratios ([2]; plasma): not affected
- cytokine levels of TNF, IL-6, IL-8, IL-10, IL-1b and IL-12p70 ([2]; plasma, compared to baseline): unaffected
- mortality ([3]; groups of 10, 300 ppm gNO, 6 continuous hours per day): Six of the animals treated with 300 ppm gNO died during the first 1-2 days
- MetHb levels ([3]; 400 ppm gNO): 72.5 percents
- MetHb levels ([3]; 500 ppm gNO): 67 percents
- survival (bactericidal trend) (P. aeruginosa): 5-10%
- levels of MetHb ([4]; inhalation of gNO at 128 ppm for 3 hours): > 5%
- levels of MetHb ([4]; inhalation of gNO at 512 ppm for 55 minutes): > 5%
- population of planktonic MRSA strains [5]: reduction in the population of all five MRSA planktonic strains
- clinical symptoms of bovine respiratory disease [6]: decrease the clinical symptoms of bovine respiratory disease
